From ChEMBL document CHEMBL4673360, “Discovery of novel HIV-1 integrase-LEDGF/p75 allosteric inhibitors based on a pyridine scaffold forming an intramolecular hydrogen bond” (Bioorg Med Chem Lett, 2021) come the findings set out here.

Molecules are shown by their SMILES.

Series [1] in a line: Cytotoxicity against human MT4 cells by MTT assay. It counts as cell-based.
Series [2] relates to Human immunodeficiency virus 1. The series can be described thus: Antiviral activity against HIV-1 harbouring T174I mutant infected in human MT4 cells by MTT assay. Type of series: functional, organism-based. Conditions: Human immunodeficiency virus 1, MT4.
For series [3], the system named is Human immunodeficiency virus 1. The series can be described thus: Antiviral activity against wild type HIV-1 infected in human MT4 cells by MTT assay. It counts as functional, organism-based. Conditions: Human immunodeficiency virus 1, MT4. In general terms: Tetrazolium assays rely on reduction of a dye to a coloured formazan, in cell work by metabolically active cells.

Series [4] can be described thus: Metabolic stability in human liver microsomes assessed as parent compound remaining. It counts as ADME, Microsome. On the technique in general: Microsomes from liver hold many membrane-bound enzymes, among them those of drug oxidation.
Series [5] is described as follows: AUC in rat at 0.5 mg/kg, iv. More on the design: dose 0.5 mg/kg. To be noted: in vivo. It counts as ADME, organism-based.
The nature of series [6]: Elimination half-life in rat at 0.5 mg/kg, iv or 1 mg/kg, po. Conditions: in vivo, read-out: LambdaZ (converted). It counts as ADME, organism-based.
A short description of series [7]: Total clearance in rat at 0.5 mg/kg, iv or 1 mg/kg, po. Type of series: ADME, organism-based. To be noted: in vivo.
Series [8] in a line: Metabolic stability in rat liver microsomes assessed as parent compound remaining. It counts as ADME, Microsome.
Series [9] can be described thus: Oral bioavailability in rat at 1 mg/kg. It counts as ADME, organism-based. Conditions: in vivo.

Broadly, the CC50 is the concentration giving 50% cytotoxicity. What is called EC50 is the concentration giving half of the maximal effect. Higher therefore signals a need for much substance. In general, AUC refers to the area under the concentration-time curve, a measure of exposure. Higher therefore signals high exposure. Broadly, the bioavailability is dose-corrected exposure relative to a reference, in per cent. A high value points to much systemic uptake.

Molecule `Cc1nc(NC(=O)NC2CCCCC2)c(C)c(C(OC(C)(C)C)C(=O)O)c1-c1ccc(Cl)cc1` (stereo not given) yielded a CC50 in series [1] of 16 µM. Further, the EC50 in series [2] came out at 1.8 µM; in series [3], 0.017 µM.
`Cc1ccc(-c2c(C)nc(C(=O)N(C)Cc3ccccc3)c(C)c2C(OC(C)(C)C)C(=O)O)cc1C` (stereo not given): in series [1], the CC50 came out at 77 µM. In addition, in [3], the EC50 amounted to 0.36 µM.
For `Cc1ccc(-c2c(C)nc(C(=O)NCc3ccccc3)c(C)c2C(OC(C)(C)C)C(=O)O)cc1C` (stereo not given), in that order: 54 µM and 0.18 µM.
`Cc1ccc(-c2c(C)nc(NS(=O)(=O)c3cccc4ccccc34)c(C)c2C(OC(C)(C)C)C(=O)O)cc1C` (stereo not given): the midpoint of cytotoxicity in [1], the CC50, lay at 16 µM. The EC50 in [2] is 1 µM; in series [3], 0.032 µM.
For `Cc1ccc(-c2c(C)nc(NC(=O)NC3CCCC3)c(C)c2C(OC(C)(C)C)C(=O)O)cc1C` (stereo not given), in that order: 8 µM, greater than 1 µM and 0.0083 µM.
Molecule `Cc1ccc(-c2c(C)nc(Nc3nc4ccccc4s3)c(C)c2C(OC(C)(C)C)C(=O)O)cc1C` (stereo not given) returned a CC50 in series [1] of 6.6 µM. In series [3], this molecule came in with an EC50 of 0.35 µM.
Turning to `Cc1nc(NC(=O)NC2CCCCC2)c(C)c(C(OC(C)(C)C)C(=O)O)c1-c1ccc2c(c1)CCCO2` (stereo not given), in [1], half-maximal cytotoxicity (CC50) was put at 17 µM. Moreover, the EC50 stood at 0.56 µM in series [2] and 0.021 µM in series [3].
Take `Cc1ccc(-c2c(C)nc(NC(=O)NC3CCCCC3)c(C)c2C(OC(C)(C)C)C(=O)O)cc1C` (stereo not given): the Stabilty was 65% in series [4] and 66% in [8]. The molecule also came in with a CC50 in series [1] of 7.9 µM. In series [5], this molecule gave an AUC of 127 ng·h/mL. Also, in series [6], the half-life was 1.6 h. The molecule further showed a clearance in series [7] of 12.5 mL/min/kg. Besides, the EC50 is greater than 1 µM in [2] and 0.0066 µM in series [3]. Besides, the bioavailability in series [9] was 9.2%.
Molecule `Cc1ccc(-c2c(C)nc(Nc3nc4ccccc4n3C)c(C)c2C(OC(C)(C)C)C(=O)O)cc1C` (stereo not given) had a CC50 in series [1] of 14 µM. Moreover, in [3], a half-maximal effect (EC50) was put at 0.19 µM.
Regarding `COc1ccc(-c2c(C)nc(NC(=O)NC3CCCCC3)c(C)c2C(OC(C)(C)C)C(=O)O)cc1` (stereo not given), the CC50 in series [1] was found to be 19 µM. The EC50 was found to be 0.75 µM in [2] and 0.01 µM in series [3].
In the same order, the values of `Cc1ccc(-c2c(C)nc(NC(=O)NCc3ccccc3)c(C)c2C(OC(C)(C)C)C(=O)O)cc1C` (stereo not given) are 17 µM, greater than 4 µM and 0.035 µM.
In the same order, the values of `Cc1ccc(-c2c(C)nc(NC(=O)Nc3ccccc3)c(C)c2C(OC(C)(C)C)C(=O)O)cc1C` (stereo not given) are 9.9 µM, greater than 1 µM and 0.011 µM.
In the same order, the values of `Cc1nc(NC(=O)NC2CCCCC2)c(C)c(C(OC(C)(C)C)C(=O)O)c1-c1ccc(C(F)(F)F)cc1` (stereo not given) are 9.8 µM, 7.7 µM and 0.061 µM.
Consider `COc1ccc(Nc2nc(C)c(-c3ccc(C)c(C)c3)c(C(OC(C)(C)C)C(=O)O)c2C)cc1` (stereo not given), for which, in [1], the cytotoxic concentration (CC50) came out at 28 µM. In addition, the EC50 in [3] came to 0.22 µM.
The molecule `Cc1ccc(-c2c(C)nc(NC(=O)NCCc3ccccc3)c(C)c2C(OC(C)(C)C)C(=O)O)cc1C` (stereo not given) had a CC50 in [1] of 11 µM. The concentration for a half-maximal effect (EC50) in [2] is greater than 2 µM; in [3] it was 0.02 µM.
In the same order, the values of `Cc1ccc(-c2c(C)nc(NC(=O)NC3CCOCC3)c(C)c2C(OC(C)(C)C)C(=O)O)cc1C` (stereo not given) are 29 µM, greater than 5 µM and 0.045 µM.
For `Cc1nc2ccccc2c(-c2ccc3c4c(ccnc24)CCO3)c1[C@H](OC(C)(C)C)C(=O)O` [BI-224436], in that order: greater than 50 µM, greater than 5 µM and 0.022 µM.
In the same order, the values of `Cc1ccc(-c2c(C)nc(NC(=O)NC3CCCCCC3)c(C)c2C(OC(C)(C)C)C(=O)O)cc1C` (stereo not given) are 7.7 µM, greater than 1 µM and 0.011 µM.
Turning to `Cc1nc(NC(=O)NC2CCCCC2)c(C)c(C(OC(C)(C)C)C(=O)O)c1-c1ccc2c(c1)NCCO2` (stereo not given), the CC50 in series [1] was 30 µM. This molecule had a concentration giving a half-maximal response (EC50) in series [3] greater than 0.1 µM.
As for `Cc1nc(NC(=O)NC2CCCCC2)c(C)c(C(OC(C)(C)C)C(=O)O)c1-c1ccc2c(c1C)CCCO2` (stereo not given), the CC50 in [1] was 11 µM. The EC50 in [2] was 0.27 µM; in [3], 0.0066 µM.
